Consider 23 compounds from US12304912B2, “Fused bicyclic RAF inhibitors and methods for use thereof” (Jazz Pharmaceuticals Ireland Limited, priority 2020, dated 2025).

Like-named read-outs stand apart in the source and are kept apart here.

Data set [1] concerns RAF dimers in HCT-116 cells. In words: HCT-116 AlphaLISA SureFire pERK1/2 cellular assay (dimer). It counts as cell-based. Particulars: Homo sapiens, HCT-116; HCT116 cells, dimer, 1 hr; read-out: pERK HCT116 dimer (1 hr) plC50 (converted). Put shortly: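 HCT-116 (KRAS G13D) cells, 30,000/well, pretreated 1 h with 1 μM Encorafenib to induce RAF dimers, washed, then dosed 1 h at 37° C with compound (10-point, top 10 μM, 1/2 log steps) in growth medium. pERK1/2 (T202/Y204) measured by AlphaLISA SureFire; absolute IC50 versus DMSO control.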
In general terms: In Alpha technology, singlet oxygen from a donor bead excites a nearby acceptor bead.

Data set [2] in a line: Plasma protein binding assay, human plasma (hPPB). Particulars: 5 μM, equilibrium dialysis 4 hours at 37° C. It counts as in vitro ADME. Put shortly:
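Equilibrium dialysis of 5 μM compound in previously frozen human or mouse plasma against phosphate buffer, 4 h at 37 °C. Both chambers quantified by LC-MS/MS; % free = (1−((PC−PF)/PC))×100.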
A general note: In equilibrium dialysis only unbound substance equilibrates across the membrane.

Data set [3] concerns constitutive ERK phosphorylation in HCT-116 cells. In words: HCT-116 AlphaLISA SureFire pERK1/2 cellular assay. It counts as cell-based, human. The following applies: Homo sapiens, read-out: pERK HCT116 (2 hr) Abs pIC50 (converted). Put shortly: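 Cells seeded overnight (30,000/well for 2 h, 15,000/well for 24 h), then dosed in 1% FBS medium with a 10-point series from 1 μM top, 1/3 log steps, for 2 or 24 h at 37 °C. Lysates read by AlphaLISA for Thr202/Tyr204 pERK1/2; absolute IC50 versus DMSO control.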

Setting [4] is: HCT-116, HCT116 cells, 2 hr, Abs.

With `O=C1CCc2c(Oc3ccc4c(c3)CC(c3nc(-c5cccnc5C(F)(F)F)c[nH]3)CO4)ccnc2N1` (stereo not drawn) [Compound 128, 5-[3-[4-[2-(trifluoromethyl)-3-pyridyl]-1H-imidazol-2-yl]chroman-6-yl]oxy-3,4-dihydro-1H-1,8-naphthyridin-2-one], the IC50 in data set [1] was 263 nM; in data set [3] (setting [4]), 389 nM. The “hPPB (% free)” value in data set [2] was found to be 0.9 % free.
For `Cn1ncc2ccc(-c3c[nH]c(C4COc5ccc(Oc6ccnc7c6CCC(=O)N7)cc5C4)n3)cc21` (stereo not drawn) [Compound 130, 5-[3-[4-(1-methylindazol-6-yl)-1H-imidazol-2-yl]chroman-6-yl]oxy-3,4-dihydro-1H-1,8-naphthyridin-2-one], the figures for the IC50 in data set [1] and in data set [3] (setting [4]) were 166 nM and 141 nM, respectively. For the same compound, in data set [2], the “hPPB (% free)” value is recorded as 0.1 % free.
The like results for `O=C1CCc2c(Oc3ccc4c(c3)CC(c3nc(C5CCOCC5)c[nH]3)CO4)ccnc2N1` (stereo not drawn) [Compound 132, 5-[3-(4-tetrahydropyran-4-yl-1H-imidazol-2-yl)chroman-6-yl]oxy-3,4-dihydro-1H-1,8-naphthyridin-2-one] were, in that order, 427 nM, 347 nM and 2.6 % free.
On to `O=C1CCc2c(Oc3ccc4c(c3)CC(c3nc5ccncc5[nH]3)CO4)ccnc2N1` (stereo not drawn) [Compound 134, 5-[3-(3H-imidazo[4,5-c]pyridin-2-yl)chroman-6-yl]oxy-3,4-dihydro-1H-1,8-naphthyridin-2-one], for which the IC50 was 32.4 nM in data set [1] and more than 1000 nM in data set [3] (setting [4]). Further, the “hPPB (% free)” value in data set [2] turned out to be 6.1 % free.
`O=C(Nc1cc(Oc2ccc3c(c2)CC(c2nc(-c4ccccc4)c[nH]2)CO3)ccn1)C1CC1(F)F` (stereo not drawn) [Compound 137, 2,2-difluoro-N-[4-[3-(4-phenyl-1H-imidazol-2-yl)chroman-6-yl]oxy-2-pyridyl]cyclopropanecarboxamide]: the values for the IC50 in data set [1] and in data set [3] (setting [4]) were 28.2 nM and 35.5 nM, respectively. The “hPPB (% free)” value in data set [2] came out at 0.1 % free.
With `O=C(Nc1cc(Oc2ccc3c(c2)CC(c2nc(-c4ccccc4)c[nH]2)CO3)ccn1)C1(F)CC1` (stereo not drawn) [Compound 138], the IC50 is 813 nM in data set [1] and 275 nM in data set [3] (setting [4]). The “hPPB (% free)” value in data set [2] is given as less than 0.1 % free.
The matching figures for `O=C(Nc1cc(Oc2ccc3c(c2)CC(c2nc(-c4ccccc4)c[nH]2)CO3)ccn1)C1CC(F)(F)C1` (stereo not drawn) [Compound 139]: 219 nM, 200 nM and less than 0.1 % free.
For `c1ccc(-c2c[nH]c(C3COc4ccc(Oc5ccnc(Nc6ccccn6)c5)cc4C3)n2)cc1` (stereo not drawn) [Compound 140, 4-[3-(4-phenyl-1H-imidazol-2-yl)chroman-6-yl]oxy-N-(2-pyridyl)pyridin-2-amine], the IC50 in data set [1] is 2040 nM; in data set [3] (setting [4]), more than 1000 nM. Also, the “hPPB (% free)” value in data set [2] is recorded as less than 0.1 % free.
The matching figures for `Cc1c[nH]c(-c2cc(Oc3ccc4c(c3)CC(c3nc(-c5ccccc5)c[nH]3)CO4)ccn2)n1` (stereo not drawn) [Compound 143, 2-(4-methyl-1H-imidazol-2-yl)-4-[3-(4-phenyl-1H-imidazol-2-yl)chroman-6-yl]oxy-pyridine]: 575 nM, 309 nM and less than 0.1 % free.
`O=C(Cn1ccnc1)Nc1cc(Oc2ccc3c(c2)CC(c2nc(-c4ccccc4)c[nH]2)CO3)ccn1` (stereo not drawn) [Compound 144]: the IC50 in data set [1] is 60.3 nM; in data set [3] (setting [4]) it was 45.7 nM. In addition, the “hPPB (% free)” value in data set [2] was 0.7 % free.
For the compound `O=C(CN1CC[C@@H](O)C1)Nc1cc(Oc2ccc3c(c2)CC(c2nc(-c4ccccc4)c[nH]2)CO3)ccn1` (stereo partly drawn) [Compound 145], the IC50 in data set [1] was 178 nM; in data set [3] (setting [4]) it was 166 nM. The “hPPB (% free)” value in data set [2] is recorded as 0.4 % free.
In the case of `CN1CCN(CC(=O)Nc2cc(Oc3ccc4c(c3)CC(c3nc(-c5ccccc5)c[nH]3)CO4)ccn2)CC1` (stereo not drawn) [Compound 146, 2-(4-methylpiperazin-1-yl)-N-[4-[3-(4-phenyl-1H-imidazol-2-yl)chroman-6-yl]oxy-2-pyridyl]acetamide], the results for the IC50 in data set [1] and in data set [3] (setting [4]) were 170 nM and 178 nM, respectively. In data set [2], the “hPPB (% free)” value came out at 1.5 % free.
Take `CN1CCC(C(=O)Nc2cc(Oc3ccc4c(c3)CC(c3nc(-c5ccccc5)c[nH]3)CO4)ccn2)CC1` (stereo not drawn) [Compound 147, 1-methyl-N-[4-[3-(4-phenyl-1H-imidazol-2-yl)chroman-6-yl]oxy-2-pyridyl]piperidine-4-carboxamide]: the IC50 in data set [1] was 437 nM; in data set [3] (setting [4]), 324 nM. The “hPPB (% free)” value in data set [2] is 0.5 % free.
Consider `O=C(Nc1nccc(Oc2ccc3c(c2)CC(c2nc(-c4ccccc4)c[nH]2)CO3)n1)C1CC1` (stereo not drawn) [Compound 148, N-[4-[3-(4-phenyl-1H-imidazol-2-yl)chroman-6-yl]oxypyrimidin-2-yl]cyclopropanecarboxamide], for which the IC50 in data set [1] is 457 nM; in data set [3] (setting [4]) it was 302 nM. The “hPPB (% free)” value in data set [2] turned out to be 0.9 % free.
The like results for `O=C(CN1CCOCC1)Nc1cc(Oc2ccc3c(c2)CC(c2nc(-c4ccccc4)c[nH]2)CO3)ccn1` (stereo not drawn) [Compound 149] were, in that order, 363 nM, 316 nM and 0.25 % free.
With `O=C(Nc1cc(Oc2ccc3c(c2)CC(c2nc(-c4ccccc4)c[nH]2)CO3)ncn1)C1CC1` (stereo not drawn) [Compound 151, N-[6-[3-(4-phenyl-1H-imidazol-2-yl)chroman-6-yl]oxypyrimidin-4-yl]cyclopropanecarboxamide], the IC50 in data set [1] is 204 nM; in data set [3] (HCT-116, 2 h) it was 178 nM. For the same compound, in data set [2], the “hPPB (% free)” value was found to be 0.21 % free.
Take `O=C(CN1CCCC1)Nc1cc(Oc2ccc3c(c2)CC(c2nc(-c4ccccc4)c[nH]2)CO3)ccn1` (stereo not drawn) [Compound 152]: the IC50 in data set [1] was 275 nM; in data set [3] (setting [4]), 209 nM. Moreover, the “hPPB (% free)” value in data set [2] was 0.48 % free.
Turning to `O=C(CN1CC(O)C1)Nc1cc(Oc2ccc3c(c2)CC(c2nc(-c4ccccc4)c[nH]2)CO3)ccn1` (stereo not drawn) [Compound 153], the IC50 in data set [1] is 126 nM; in data set [3] (setting [4]), 200 nM. For the same compound, the “hPPB (% free)” value in data set [2] turned out to be 0.39 % free.
In the case of `O=C(Cn1cncn1)Nc1cc(Oc2ccc3c(c2)CC(c2nc(-c4ccccc4)c[nH]2)CO3)ccn1` (stereo not drawn) [Compound 154], the IC50 in data set [1] was 38 nM; in data set [3] (setting [4]), 28.2 nM. Also, the “hPPB (% free)” value in data set [2] is recorded as 0.75 % free.
As to `O=C(Nc1cc(Oc2ccc3c(c2)CC(c2nc(-c4ccc(F)cc4)c[nH]2)CO3)ccn1)C1CC1` (stereo not drawn) [Compound 155, N-[4-[3-[4-(4-fluorophenyl)-1H-imidazol-2-yl]chroman-6-yl]oxy-2-pyridyl]cyclopropanecarboxamide], the IC50 was 72.4 nM in data set [1] and 60.3 nM in data set [3] (setting [4]). Moreover, the “hPPB (% free)” value in data set [2] was 0.1 % free.
Consider `CC(=O)Nc1cc(Oc2ccc3c(c2)CC(c2nc(-c4ccccc4)c[nH]2)CO3)ccn1` (stereo not drawn) [Compound 156, N-[4-[3-(4-phenyl-1H-imidazol-2-yl)chroman-6-yl]oxy-2-pyridyl]acetamide], for which the values for the IC50 in data set [1] and in data set [3] (setting [4]) were 52.5 nM and 42.7 nM, respectively. In addition, the “hPPB (% free)” value in data set [2] amounted to 0.5 % free.
The like results for `CC1CC1C(=O)Nc1cc(Oc2ccc3c(c2)CC(c2nc(-c4ccccc4)c[nH]2)CO3)ccn1` (stereo not drawn) [Compound 157] were, in that order, 174 nM, 112 nM and less than 0.1 % free.
As for `O=C1CCc2c(Oc3ccc4c(c3)CN(c3nc5cc(C(F)(F)F)ccc5[nH]3)CC4)ccnc2N1` [Compound 160], the IC50 in data set [1] was 347 nM; in data set [3] (setting [4]), 135 nM. Besides, the “hPPB (% free)” value in data set [2] came out at 0.3 % free.
